Laboratory results from ChEMBL document CHEMBL1155820, “Lipid-conjugated oligonucleotides via "click chemistry" efficiently inhibit hepatitis C virus translation” (J Med Chem, 2008).
Active and inactive are the calls of the source. The rule behind the calls is not given here.

Columns and labels:
Hepatitis C virus [1] = assay: Inhibition of hepatitis C virus internal ribosome entry site-mediated translation in human Huh7 cells preincubated for 4 hrs in presence of fetal calf serum by bicistronic luciferase reporter gene assay; assay type: functional, organism-based; details: Hepacivirus hominis; Huh-7
[2] = Cytotoxicity against human Huh7 cells at 0.1 to 2 uM; assay type: cell-based; details: huh-7, 2 µM
Hepatitis C virus [3] = assay: Inhibition of hepatitis C virus internal ribosome entry site-mediated translation in human Huh7 cells at 2 uM preincubated for 4 hrs in presence of fetal calf serum by bicistronic luciferase reporter gene assay; assay type: functional, Hepacivirus hominis; details: Huh-7
Hepatitis C virus [4] = assay: Inhibition of hepatitis C virus internal ribosome entry site-mediated translation in human Huh7 cells at 1 uM preincubated for 4 hrs in presence of fetal calf serum by bicistronic luciferase reporter gene assay; assay type: functional, Hepacivirus hominis; details: Huh-7

| SMILES | Activity (Hepatitis C virus [1]) | Activity [2] | inhibition at 2 µM (Hepatitis C virus [3]) | inhibition at 1 µM (Hepatitis C virus [4]) |
| --- | --- | --- | --- | --- |
| CCCCCCCCCCCCCCCCCCOCC1=CN(C[C@H]2O[C@@H](n3cc(C)c(=O)[nH]c3=O)C[C@@H]2OP(=O)(O)OC[C@H]2O[C@@H](n3cnc4c(N)ncnc43)[C@H](OC)[C@@H]2OP(=O)(O)OC[C@H]2O[C@@H](n3ccc(N)nc3=O)[C@H](OC)[C@@H]2OP(=O)(O)OC[C@H]2O[C@@H](n3ccc(N)nc3=O)[C@H](OC)[C@@H]2OP(=O)(O)OC[C@H]2O[C@@H](n3ccc(N)nc3=O)[C@H](OC)[C@@H]2OP(=O)(O)OC[C@H]2O[C@@H](n3cnc4c(N)ncnc43)[C@H](OC)[C@@H]2OP(=O)(O)OP(=O)(O)OC[C@H]2O[C@@H](n3cnc4c(N)ncnc43)[C@H](OC)[C@@H]2OP(=O)(O)OC[C@H]2O[C@@H](n3ccc(N)nc3=O)[C@H](OC)[C@@H]2OP(=O)(O)OC[C@H]2O[C@@H](n3cnc4c(N)ncnc43)[C@H](OC)[C@@H]2OP(=O)(O)OC[C@H]2O[C@@H](n3ccc(N)nc3=O)[C@H](OC)[C@@H]2OP(=O)(O)OC[C@H]2O[C@@H](n3ccc(=O)[nH]c3=O)[C@H](OC)[C@@H]2OP(=O)(O)OC[C@H]2O[C@@H](n3cnc4c(N)ncnc43)[C@H](OC)[C@@H]2OP(=O)(O)OC[C@H]2O[C@@H](n3ccc(N)nc3=O)[C@H](OC)[C@@H]2OP(=O)(O)OC[C@H]2O[C@@H](n3ccc(=O)[nH]c3=O)[C@H](OC)[C@@H]2OP(=O)(O)OC[C@H]2O[C@@H](n3ccc(N)nc3=O)[C@H](OC)[C@@H]2OP(=O)(O)OC[C@H]2O[C@@H](n3cnc4c(=O)[nH]c(N)nc43)[C@H](OC)[C@@H]2OP(=O)(O)OC[C@H]2O[C@@H](n3cnc4c(=O)[nH]c(N)nc43)[C@H](OC)[C@@H]2OP(=O)(O)OC[C@H]2O[C@@H](n3ccc(N)nc3=O)[C@H](OC)[C@@H]2OP(=O)(O)O)NN1 | Dose-dependent effect | Non-toxic | 50% |  |
| CO[C@@H]1[C@H](OP(=O)(O)O)[C@@H](COP(=O)(O)O[C@H]2[C@@H](OC)[C@H](n3cnc4c(=O)[nH]c(N)nc43)O[C@@H]2COP(=O)(O)O[C@H]2[C@@H](OC)[C@H](n3cnc4c(=O)[nH]c(N)nc43)O[C@@H]2COP(=O)(O)O[C@H]2[C@@H](OC)[C@H](n3ccc(N)nc3=O)O[C@@H]2COP(=O)(O)O[C@H]2[C@@H](OC)[C@H](n3ccc(=O)[nH]c3=O)O[C@@H]2COP(=O)(O)O[C@H]2[C@@H](OC)[C@H](n3ccc(N)nc3=O)O[C@@H]2COP(=O)(O)O[C@H]2[C@@H](OC)[C@H](n3cnc4c(N)ncnc43)O[C@@H]2COP(=O)(O)O[C@H]2[C@@H](OC)[C@H](n3ccc(=O)[nH]c3=O)O[C@@H]2COP(=O)(O)O[C@H]2[C@@H](OC)[C@H](n3ccc(N)nc3=O)O[C@@H]2COP(=O)(O)O[C@H]2[C@@H](OC)[C@H](n3cnc4c(N)ncnc43)O[C@@H]2COP(=O)(O)O[C@H]2[C@@H](OC)[C@H](n3ccc(N)nc3=O)O[C@@H]2COP(=O)(O)O[C@H]2[C@@H](OC)[C@H](n3cnc4c(N)ncnc43)O[C@@H]2COP(=O)(O)OP(=O)(O)O[C@H]2[C@@H](OC)[C@H](n3cnc4c(N)ncnc43)O[C@@H]2COP(=O)(O)O[C@H]2[C@@H](OC)[C@H](n3ccc(N)nc3=O)O[C@@H]2COP(=O)(O)O[C@H]2[C@@H](OC)[C@H](n3ccc(N)nc3=O)O[C@@H]2COP(=O)(O)O[C@H]2[C@@H](OC)[C@H](n3ccc(N)nc3=O)O[C@@H]2COP(=O)(O)O[C@H]2[C@@H](OC)[C@H](n3cnc4c(N)ncnc43)O[C@@H]2COP(=O)(O)O[C@H]2C[C@H](n3cc(C)c(=O)[nH]c3=O)O[C@@H]2CN2C=C(CO[C@H]3CC[C@@]4(C)C(=CC[C@H]5[C@@H]6CC[C@H]([C@H](C)CCCC(C)C)[C@@]6(C)CC[C@@H]54)C3)NN2)O[C@H]1n1ccc(N)nc1=O | Dose-dependent effect | Non-toxic |  | 50% |
| CO[C@@H]1[C@H](OP(=O)(O)O)[C@@H](COP(=O)(O)O[C@H]2[C@@H](OC)[C@H](n3cnc4c(=O)[nH]c(N)nc43)O[C@@H]2COP(=O)(O)O[C@H]2[C@@H](OC)[C@H](n3cnc4c(=O)[nH]c(N)nc43)O[C@@H]2COP(=O)(O)O[C@H]2[C@@H](OC)[C@H](n3ccc(N)nc3=O)O[C@@H]2COP(=O)(O)O[C@H]2[C@@H](OC)[C@H](n3ccc(=O)[nH]c3=O)O[C@@H]2COP(=O)(O)O[C@H]2[C@@H](OC)[C@H](n3ccc(N)nc3=O)O[C@@H]2COP(=O)(O)O[C@H]2[C@@H](OC)[C@H](n3cnc4c(N)ncnc43)O[C@@H]2COP(=O)(O)O[C@H]2[C@@H](OC)[C@H](n3ccc(=O)[nH]c3=O)O[C@@H]2COP(=O)(O)O[C@H]2[C@@H](OC)[C@H](n3ccc(N)nc3=O)O[C@@H]2COP(=O)(O)O[C@H]2[C@@H](OC)[C@H](n3cnc4c(N)ncnc43)O[C@@H]2COP(=O)(O)O[C@H]2[C@@H](OC)[C@H](n3ccc(N)nc3=O)O[C@@H]2COP(=O)(O)O[C@H]2[C@@H](OC)[C@H](n3cnc4c(N)ncnc43)O[C@@H]2COP(=O)(O)OP(=O)(O)O[C@H]2[C@@H](OC)[C@H](n3cnc4c(N)ncnc43)O[C@@H]2COP(=O)(O)O[C@H]2[C@@H](OC)[C@H](n3ccc(N)nc3=O)O[C@@H]2COP(=O)(O)O[C@H]2[C@@H](OC)[C@H](n3ccc(N)nc3=O)O[C@@H]2COP(=O)(O)O[C@H]2[C@@H](OC)[C@H](n3ccc(N)nc3=O)O[C@@H]2COP(=O)(O)O[C@H]2[C@@H](OC)[C@H](n3cnc4c(N)ncnc43)O[C@@H]2COP(=O)(O)O)O[C@H]1n1ccc(N)nc1=O | inactive |  |  |  |
